Laboratory results reported in patent US20170328922A1, “METHODS AND PRODUCTS FOR LABELLING LIPIDS” (UNIVERSITY OF SOUTH AUSTRALIA, priority 2014, published 2017).

Key:
[1] = Rhenium molecular probe-lipid overlay (dot blot); format: binding; design: key to interaction with GM1 (dot blot): ✓ indicates a positive interaction; x indicates no interaction
Procedure: The experimental protocol probe-lipid overlay was as follows: 50 μM of each lipids was loaded on to PVDF membranes (Perkin Elmer, USA), which were then incubated with molecular probes. PhenCyano and PhenPyridyl were assessed against eleven lipids including; sphingomyelin (Cat # S0756, Sigma Aldrich, USA), sphingosine (Cat # S7049; Sigma Aldrich, USA), L-phosphatidylethanolamine (Cat # P7943, Sigma Aldrich, USA), monosialodanglioside (GM1; Cat # G7641, Sigma Aldrich, USA), oleoly-L-?-lysophosphatidic acid (Cat # L7260, Sigma Aldrich, USA), palmitic acid (Cat # P5917, Sigma Aldrich, USA), sphingomyelin (Cat # S0756, Sigma Aldrich, USA), sphingosine (Cat # S7049; Sigma Aldrich, USA), L-?-phosphatidylethanolamine (Cat # P7943, Sigma Aldrich, USA), monosialodanglioside (GM1; Cat # G7641, Sigma Aldrich, USA), progesterone (Cat #102722, MP Biomedical, USA), ceramide (Cat # C2137; Sigma Aldrich, USA), triacylglycerol mix C2-C10 (Cat #17810, Sigma Aldrich, USA) and cholesteryl acetate (Cat #151114; Sigma Aldrich, USA).
All other molecular probes were assessed against a panel of six lipids including; sphingomyelin (Cat # S0756, Sigma Aldrich, USA), sphingosine (Cat # S7049; Sigma Aldrich, USA), L-?-phosphatidylethanolamine (Cat # P7943, Sigma Aldrich, USA), monosialodanglioside (GM1; Cat # G7641, Sigma Aldrich, USA), sphingomyelin (Cat # S0756, Sigma Aldrich, USA), sphingosine (Cat # S7049; Sigma Aldrich, USA), L-?-phosphatidylethanolamine (Cat # P7943, Sigma Aldrich, USA), monosialodanglioside (GM1; Cat # G7641, Sigma Aldrich, USA) and triacylglycerol mix C2-C10 (Cat #17810, Sigma Aldrich, USA).
Lipids were dissolved in ethanol, methanol or isopropanol for loading depending on solubility. Following lipid loading, membranes were left to dry for 20-30 minutes, then they were washed for 10 minutes in cold 10% ethanol, before they were incubated with 10 μM solution of each Rhenium molecular probe in cold 10% ethanol for one hour. Membranes were than washed four times for 10 minutes in cold 10% ethanol prior to imaging. Imaging was performed on an Image Quant Las 4000 (GE, Sweden) luminescent image analyser, with the Rhenium molecular probe being detected by excitation at 460 nm using an epi-blue light source, and detected using an 575 nm ethidium bromide filter.

[2] = system: Drosophila fat body tissue; experiment: Live staining and confocal imaging of explanted fat body tissue; format: cell-based
Procedure: All stocks were maintained in standard medium at 25° C. The yeast GAL4-UAS system was used for targeted gene expression (Brand and Perrimon, 1993). Fat-body specific expression of transgenes from the UAS were driven by CG-GAL4 (Asha et al., 2003). Transgenic UAS-Atg9RNAi stocks (#34901) and UAS-TorTED stocks (#7013) were obtained from the Bloomington Drosophila Stock Centre (Indiana University, IN, USA). Atg8aGFP was driven by an endogenous promoter (Kelso et al., 2004).
Bromophenol-blue was added to the fly media and used to define different developmental time points. […] Newly formed white pupae (0 h PF), were isolated onto moist filter paper and incubated at 25° C. for either two hours (+2 h PF) or four hours (+4 h PF).
Third instar larvae at −8 h PF were removed from standard media (normally feeding at this developmental stage) and placed on filter paper either soaked in 5% (w/v) sucrose (for amino acid deprivation), or 5% (w/v) tryptone pancreatic digest of casein (BD Bioscience USA; for carbohydrate deprivation), or soaked in water (for complete starvation). Larvae were incubated for 4-5 hours prior tissue isolation and imaging.
Fat body tissue was dissected into PBS from Drosophila larvae or pupae. The fat body tissue was either incubated with 10 μM tricarbonyl phenanthrolin (4-cyanophenyltretrazolato) Rhenium (I) in PBS for 15 minutes at room temperature, or LysoTracker® green (according to manufacturer instructions; Invitrogen, USA) and then mounted in carbomer-940 (Snowdrift farm, Tucson, USA) based optical coupling gel to prevent dehydration prior to imaging (Rothstein et al., 2006). For Oil Red O staining, fat body tissue was fixed in 4% (v/v) paraformaldehyde for 20 minutes, and incubated in 1/100 Oil Red 0 for 30 minutes and then washed in PBS before mounting in 80% glycerol.
A Ziess LSM710 META NLO confocal microscope (Zeiss, Germany), supplemented with a two-photon Mai-Tai® (tunable Ti:Sapphire femtosecond pulse laser, 710-920 nm, Spectra-Physics, Australia) was used for imaging. The images were acquired using a Plan-APOCHROMAT 63×/NA1.4 oil immersion objective. The Rhenium probe was excited at 830 nm using the two-photon pulse laser and detect at 600-654 nm. LysoTracker® green was imaged by excitation at 488 nm and detected at 497-558 nm. Atg8a-GFP was imaged with the Rhenium probe by excitation at 830 nm and resolved using spectral un-mixing using the Zen software package (based on spectral figure-printing of the two components). The Rhenium probe images and co-location analysis involved at least five separate images from five independent biological replicates, and one representative image from each treatment was selected for presentation (containing a minimum of 2 cells). For image quantification, two regions of interest (ROI) were selected at random with an area of 2500 μm^2 and the number of fluorescent puncta within the area counted, to give a minimum of 10 counts per treatment group. Comparison of means was performed by ANOVA with a Tukey post hoc tested in GraphPad Prism V.6.01 (USA).

## N#Cc1ccc(-c2nn[n]([Re](=[C]=O)(=[C]=O)=[C]=O)n2)cc1.c1cnc2c(c1)ccc1cccnc12 [PhenCyano, Triscarbonyl phenanthroline (4-cyanophenyltetrazolato)Rhenium(I)]
[1]; 10 μM probe, 50 μM lipid on PVDF membrane
  interaction with GM1 (dot blot): ✓
[1]; FIG. 7 / FIG. 8
  affinity towards monosialotetrahexosylganglioside (GM1), in words: some affinity
[2]; 0 h PF, 10 μM probe, 15 minutes
  probe distribution in fat body: most of the Rhenium probe was still inside lipid droplets
[2]; +2 h PF, 10 μM probe, 15 minutes
  probe distribution in fat body: dramatic reduction in the amount of Rhenium probe interacting with lipid droplets
[2]; −4 h PF larvae starved (amino acid and sugar deprivation)
  vesicles staining with the probe that were also Atg8a-GFP positive: approximately 90±11%
[2]; −4 h PF, 10 μM probe, 15 minutes
  probe distribution in fat body: interacted with the core of lipid droplets
[2]; −8 h PF, dominant negative TorTED expression
  probe distribution in fat body: almost all of the Rhenium probe in LysoTracker® green positive vesicles
